Results published in ChEMBL document CHEMBL1201862, “PubChem BioAssay data set” (2004).
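Briefly, cells in 96-well plates were exposed to five compound concentrations for 48 h, and endpoints were estimated by linear interpolation. Abbreviation: GI50, concentration required for 50% inhibition of growth.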 Calls of active or inactive are those of the source. Cut-off read from the data, not from the text of the source: active = GI50 up to about 1.1 µM and inactive = higher. Starred links: 1 amine or outer side, 2 acyl side, 3 side chain; linkers in the order of their positions; H or OH if unused. Positions of bridges follow the written chain, without caps; N, C: chain ends. Non-standard residues stand in square brackets, D forms with d. Residues, ends and D or L forms follow the SMILES beside them. ξ: configuration not given here. X11 = CCC(C)C(N[*:1])C(O)CC(=O)O[C@H](C(=O)C(C)C(=O)[*:2])C(C)C; X10 = O=C([C@@H]1CC(O)CN1[*:1])[*:2]; NMeY = CN[C@@H](Cc1ccc(O)cc1)C(=O)O; ξNMeL = CNC(CC(C)C)C(=O)O; ξT = CC(O)C(N)C(=O)O

Tests used:
Test in all cases: NCI-60 cell line screen, 48 h
[1] = system: Malme-3M
[2] = system: SW-620
[3] = system: MDA-N
[4] = system: Hs-578T
[5] = system: OVCAR-5
[6] = system: MDA-MB-435
[7] = system: MCF7
[8] = system: SK-MEL-2
[9] = system: BT-549
[10] = system: SK-MEL-5
[11] = system: HCT-15
[12] = system: LOX IMVI
[13] = system: PC-3
[14] = system: MOLT-4
[15] = system: HCT-116
[16] = system: MDA-MB-231
[17] = system: DU-145
[18] = system: KM-20L2
[19] = system: SNB-78
[20] = system: M19-MEL

Structure (SMILES) | GI50 [1] | GI50 [2] | GI50 [3] | GI50 [4] | GI50 [5] | GI50 [6] | GI50 [7] | GI50 [8] | GI50 [9] | GI50 [10] | GI50 [11] [µM] | GI50 [12] | GI50 [13] | GI50 [14] | GI50 [15] | GI50 [16] | GI50 [17] | GI50 [18] | GI50 [19] | GI50 [20]
CCOC(=O)c1ccc(C(=O)C(C(C)=O)C(=O)OC(C)(C)C)[nH]1 (centres undefined) | > 100 µM (inactive) | > 100 µM (inactive) | > 100 µM (inactive) | > 100 µM (inactive) | > 100 µM (inactive) | > 100 µM (inactive) | > 100 µM (inactive) | > 100 µM (inactive) | > 100 µM (inactive) | > 100 µM (inactive) | > 100 | > 100 µM (inactive) | > 100 µM (inactive) | > 100 µM (inactive) | > 100 µM (inactive) | > 100 µM (inactive) | > 100 µM (inactive) | – | – | –
CC(=O)c1nccc2c1c(C)nc1ccccc12 | > 100 µM (inactive) | > 100 µM (inactive) | 53.6 µM (inactive) | 30.3 µM (inactive) | > 100 µM (inactive) | > 100 µM (inactive) | 39.7 µM (inactive) | > 100 µM (inactive) | 97.3 µM (inactive) | 60.8 µM (inactive) | 58.9 | 57 µM (inactive) | 85.1 µM (inactive) | 44.6 µM (inactive) | 64.3 µM (inactive) | 38.3 µM (inactive) | > 100 µM (inactive) | – | – | –
CC1(C)Oc2ccccc2OC1O (centres undefined) | > 100 µM (inactive) | > 100 µM (inactive) | > 100 µM (inactive) | > 100 µM (inactive) | > 100 µM (inactive) | > 100 µM (inactive) | > 100 µM (inactive) | > 100 µM (inactive) | > 100 µM (inactive) | > 100 µM (inactive) | > 100 | > 100 µM (inactive) | > 100 µM (inactive) | > 100 µM (inactive) | > 100 µM (inactive) | > 100 µM (inactive) | > 100 µM (inactive) | – | – | –
N#CCC(=O)N/N=C1\C(=O)N(c2ccc(Cl)cc2)C(=O)C(=O)C1c1nc2ccccc2o1 (centres undefined) | > 100 µM (inactive) | > 100 µM (inactive) | – | – | – | – | – | > 100 µM (inactive) | – | > 100 µM (inactive) | > 100 | – | – | > 100 µM (inactive) | > 100 µM (inactive) | – | – | > 100 µM (inactive) | > 100 µM (inactive) | > 100 µM (inactive)
Cc1ccc(NC(=O)/C(=N\Nc2ccc([N+](=O)[O-])cc2[N+](=O)[O-])C2C(=O)NC(=O)NC2=O)cc1 | > 100 µM (inactive) | 45.7 µM (inactive) | – | – | > 100 µM (inactive) | – | – | – | – | 33.2 µM (inactive) | 6.31 | > 100 µM (inactive) | – | – | 62.4 µM (inactive) | – | – | 15.4 µM (inactive) | > 100 µM (inactive) | > 100 µM (inactive)
Cc1ccc2c(O)cc(-c3ccccc3)nc2n1 | 0.0867 µM (active) | 0.0389 µM (active) | 0.0106 µM (active) | 0.091 µM (active) | 2.56 µM (inactive) | < 0.01 µM (active) | 0.0509 µM (active) | 0.103 µM (active) | 0.122 µM (active) | 0.0512 µM (active) | 0.0352 | 0.116 µM (active) | 0.0519 µM (active) | 0.116 µM (active) | 0.0507 µM (active) | 0.467 µM (active) | 0.274 µM (active) | – | – | –
COC(=O)C1CCC(=O)N1C(c1ccc2c(c1)OCO2)c1cc(OC)c(OC)c(OC)c1 (centres undefined) | > 100 µM (inactive) | > 100 µM (inactive) | > 100 µM (inactive) | > 100 µM (inactive) | > 100 µM (inactive) | > 100 µM (inactive) | > 100 µM (inactive) | > 100 µM (inactive) | > 100 µM (inactive) | > 100 µM (inactive) | > 100 | > 100 µM (inactive) | > 100 µM (inactive) | > 100 µM (inactive) | > 100 µM (inactive) | > 100 µM (inactive) | > 100 µM (inactive) | – | – | –
Cc1ccc([N+](=O)[O-])cc1S(=O)(=O)Nc1ccc(C2=NN(c3ccc([N+](=O)[O-])cc3[N+](=O)[O-])C(c3ccccc3)C2)cc1 (centres undefined) | 17.9 µM (inactive) | 32.5 µM (inactive) | 16 µM (inactive) | 21.9 µM (inactive) | 23.7 µM (inactive) | 19.3 µM (inactive) | 12.2 µM (inactive) | 13.6 µM (inactive) | 17.2 µM (inactive) | 11.9 µM (inactive) | 14.6 | 17.1 µM (inactive) | 14.3 µM (inactive) | 16.8 µM (inactive) | 13 µM (inactive) | 14.9 µM (inactive) | 17.9 µM (inactive) | – | – | –
CCC(C)C1NC(=O)C(NC(=O)C(CC(C)C)N(C)C(=O)[C@@H]2CC(O)CN2)C(C)OC(=O)[C@H](Cc2ccc(OC)cc2)N(C)C(=O)[C@@H]2CCCN2C(=O)[C@H](CC(C)C)NC(=O)C(C)C(=O)[C@H](C(C)C)OC(=O)CC1O (some centres undefined) (H-[X10][ξNMeL][ξT][X11]LP[NMeY](Me); ester 3-C) | 0.00336 µM (active) | 0.0108 µM (active) | 0.00561 µM (active) | < 0.001 µM (active) | 0.0275 µM (active) | 0.0102 µM (active) | < 0.001 µM (active) | 0.00399 µM (active) | 0.00609 µM (active) | < 0.001 µM (active) | 0.472 | 0.00311 µM (active) | 0.0135 µM (active) | 0.00161 µM (active) | 0.00143 µM (active) | 0.0224 µM (active) | 0.0363 µM (active) | – | – | –
